Columns and labels:
[1] = refractive index (Na D-line) (dimensionless); xn = mol fraction of the nth substance listed; details: 101 kPa, Liquid, Standard Abbe refractometry, x2 = 0
[2] = xn = mol fraction of the nth substance listed; details: 101 kPa, Liquid, x2 = 0; for viscosity: Capillary tube (Ostwald / Ubbelohde) method; for mass density: Vibrating tube method
[3] = 101 kPa, Liquid; for viscosity: Capillary tube (Ostwald / Ubbelohde) method; for mass density: Vibrating tube method
[4] = refractive index (Na D-line) (dimensionless); details: 101.33 kPa, Liquid, Standard Abbe refractometry

O [water] + CNCCO
Details | mass density, [2] [kg/m3] | refractive index, [1] | viscosity, [2] [mPa·s]
293.15 K | – | 1.3331 | –
298.15 K | – | 1.3326 | 0.8824
303.15 K | – | 1.332 | 0.8047
308.15 K | – | 1.3314 | –
313.15 K | 992.26 | 1.3307 | 0.6596
318.15 K | – | 1.3299 | –
323.15 K | 988.05 | 1.3291 | 0.5507
333.15 K | 983.19 | – | 0.4703
343.15 K | 977.78 | – | 0.4074

CNCCO [2-(methylamino)ethanol]
Details | mass density, [3] [kg/m3] | refractive index, [4] | viscosity, [3] [mPa·s]
293.15 K | – | 1.4393 | –
298.15 K | 936.18 | 1.4375 | 10.51
303.15 K | 932.26 | 1.4356 | 8.522
308.15 K | – | 1.4339 | –
313.15 K | 924.42 | 1.4318 | 5.833
318.15 K | – | 1.4298 | –
323.15 K | 916.48 | 1.4278 | 4.177
333.15 K | 908.46 | – | 3.108
343.15 K | 900.3 | – | 2.385

— the NIST ThermoML archive (doi:10.1021/je060457+)
